In series [1] the test system is Mycobacterium tuberculosis. Nature of the series: Antimicrobial activity against Mycobacterium tuberculosis H37Rv by MABA. Format: functional.
The subject of series [2] is Mycobacterium tuberculosis. Nature of the series: Antimicrobial activity against Mycobacterium tuberculosis H37Rv incubated for 7 days by alamar blue microplate reader assay. The class given is functional. To be noted: 168 h, time 7 day.
Series [3] in a line: Metabolic stability in human liver microsomes assessed as half life. Format: ADME, Microsome.
The nature of series [4]: Metabolic stability in human liver microsomes assessed as intrinsic clearance. The class given is ADME, Microsome. To be noted: read-out: CLH.
A short description of series [5]: Metabolic stability in human liver microsomes assessed as compound remaining after 60 mins in presence of NADPH. Format: ADME, Microsome. Particulars: read-out: Stability.
Series [6] in a line: Metabolic stability in human liver assessed as intrinsic clearance. Format: ADME, tissue-based. Particulars: read-out: CLH.
Series [7] relates to Mycobacterium tuberculosis. Description: Antimicrobial activity against Mycobacterium tuberculosis H37Rv by microdilution method. Format: functional.
Series [8] deals with Mycobacterium tuberculosis. Nature of the series: Antimicrobial activity against Mycobacterium tuberculosis H37Rv. The class given is functional.
For series [9], the system named is Mycobacterium tuberculosis. Description: Bacteriostatic activity against Mycobacterium tuberculosis. The class given is functional.
Series [10] concerns Mycobacterium tuberculosis. Nature of the series: Antimicrobial activity against Mycobacterium tuberculosis H37Rv treated with compound diluted mouse serum at 1:8 to 1:64 serial dilution by MABA. The class given is functional, organism-based.

Values after ≈ are worked out from the molar mass of the structure shown. Active and inactive are the calls of the source. No cut-off for these calls is given here.

Consider `Oc1ccc2c(c(-c3nnco3)cn2-c2ccc(Br)s2)c1CN1CCC1`, for which the MIC90 in series [1] worked out at 1 µM (≈ 0.431 µg/mL).
The same measure, in the same setting: the result for `CC(=O)c1cn(-c2ccc(Br)s2)c2ccc(O)c(CN3CC4(COC4)C3)c12` reads 2 µM (≈ 0.895 µg/mL).
With `O=c1cc(-c2ccccc2O)oc2ccc(O)c(CN3CCC3)c12`, in series [2], the MIC was determined as 1.39 µM (≈ 0.449 µg/mL).
Turning to `CC(=O)c1c(C)n(-c2ccc(C3CCNCC3)cc2)c2ccc(O)c(CN3CCCCC3)c12`, in series [3], the half-life came to 0.345 h. Besides, the microsomal CLint in series [4] was 66.9 µL/min/mg. For the same molecule, the remaining at 1 h in series [5] is 11.3%. In [1], this molecule returned an MIC90 of 0.14 µM (≈ 0.0624 µg/mL). Also, the CLint scaled in series [6] amounted to 60.2 mL/min/kg.
`CC(=O)c1cn(-c2ccc(Br)s2)c2ccc(O)c(CN3CCCCC3)c12`: the MIC90 in [1] worked out at 0.58 µM (≈ 0.251 µg/mL).
`Oc1ccc2c(c(-c3nnco3)cn2-c2ccc(Br)cc2)c1CN1CCOCC1`: the MIC90 in [1] amounted to 4 µM (≈ 1.82 µg/mL).
Consider `Oc1ccc2c(c(-c3nnco3)cn2-c2ccc(Br)cc2)c1CN1CCCC1`, for which the half-life in series [3] worked out at 1.09 h. Besides, the microsomal CLint in series [4] turned out to be 21.2 µL/min/mg. In addition, the remaining at 1 h in series [5] came to 53%. The same molecule came in with an MIC90 in series [1] of 0.07 µM (≈ 0.0308 µg/mL). Moreover, the CLint scaled in series [6] came to 19 mL/min/kg.
Molecule `Oc1ccc2c(c(-c3nnco3)cn2-c2ccc(Br)cc2)c1CN1CC(F)C1` gave an MIC90 in [1] of 0.56 µM (≈ 0.248 µg/mL).
The same measure, in the same setting: in the case of `CC(=O)c1cn(-c2ccc(Br)cc2)c2ccc(O)c(CN3CC(F)C3)c12` it was 1 µM (≈ 0.417 µg/mL); in that of `Cc1ccc(-n2cc(-c3nnco3)c3c(CN4CCC4)c(O)ccc32)s1`, 3 µM (≈ 1.1 µg/mL).
The same measure, in the same setting: in the case of `CC(=O)c1cn(-c2cccnc2)c2ccc(O)c(CN3CCC3)c12` it was 100 µM (≈ 32.1 µg/mL).
`COC(=O)c1c(NC(=O)c2c(F)c(F)c(F)c(F)c2F)sc2c1CCCCC2` returned an MIC in [7] of 1 µM (≈ 0.419 µg/mL).
In [8], `COc1ccc(OC)c(-c2ccc(-c3cn(CCc4ccc(C(=O)N(C)C)cc4)nn3)cn2)c1` returned a minimal inhibitory concentration (MIC) of 0.25 µM (≈ 0.114 µg/mL).
For `CC(=O)c1cn(-c2ccc(Br)s2)c2ccc(O)c(CN3CCC3)c12`, the MIC90 in series [1] is 0.62 µM (≈ 0.251 µg/mL). This lies in the sub-micromolar range.
Still for that read-out and setting: in the case of `CC(=O)c1cn(-c2ccc(Br)cc2)c2ccc(O)c(CN3CCC3)c12` it was 0.08 µM (≈ 0.0319 µg/mL).
In the case of `CC(=O)c1c(C)n(-c2ccc(Br)cc2)c2ccc(O)c(CN3CCCCC3)c12`, in series [3], the half-life was determined as 0.967 h. The microsomal CLint in series [4] amounted to 23.9 µL/min/mg. For the same molecule, in series [5], the remaining at 1 h was determined as 47.3%. The MIC90 in series [1] worked out at 0.28 µM (≈ 0.124 µg/mL). Moreover, the CLint scaled in series [6] was found to be 21.5 mL/min/kg.
In the case of `Oc1ccc2c(c(-c3nnco3)cn2-c2ccc(Br)cc2)c1CN1CCCCC1`, the half-life in series [3] was determined as 1.1 h. Moreover, in [4], the microsomal CLint came out at 21 µL/min/mg. Further, in series [5], the remaining at 1 h stood at 55%. Moreover, the MIC90 in [1] was determined as 0.07 µM (≈ 0.0317 µg/mL). The CLint scaled in series [6] worked out at 18.9 mL/min/kg.
The molecule `Oc1ccc2c(c(-c3nnco3)cn2-c2ccc(Br)cc2)c1CN1CC2(COC2)C1` yielded an MIC90 in series [1] of 1 µM (≈ 0.467 µg/mL).
For the molecule `CCOC(=O)c1c(-c2ccccc2)oc2ccc(O)c(CN3CCC(C)CC3)c12`, it took 2.3 µM (≈ 0.905 µg/mL) to inhibit growth in [8] (MIC). That is a single-digit micromolar value.
As to `CC(=O)c1ccc(-n2cc(C(C)=O)c3c(CN4CCC4)c(O)ccc32)s1`, in [1], the MIC90 came to 5 µM (≈ 1.84 µg/mL).
Still for that read-out and setting: the result for `CC(=O)c1cn(-c2ccc(Br)cc2)c2ccc(O)c(CN3CCCCC3)c12` reads 0.07 µM (≈ 0.0299 µg/mL).
The same measure, in the same setting: in the case of `CC(=O)c1cn(-c2cccs2)c2ccc(O)c(CN3CCC3)c12` it was 3 µM (≈ 0.979 µg/mL).
In turn, `O=c1cc(-c2ccc(O)cc2)oc2ccc(O)c(CN3CCC3)c12` gave a minimal inhibitory concentration (MIC) in [2] of 1.39 µM (≈ 0.449 µg/mL). This counts as single-digit micromolar.
With `Oc1ccc2c(c(-c3nnco3)cn2-c2ccc(Br)s2)c1CN1CC2(COC2)C1`, the MIC90 in series [1] amounted to 8 µM (≈ 3.79 µg/mL).
As for `CC(=O)c1cn(-c2ccc(-c3ccccc3)s2)c2ccc(O)c(CN3CCC3)c12`, the half-life in [3] is 2.17 h. Also, the microsomal CLint in series [4] stood at 10.7 µL/min/mg. Besides, the remaining at 1 h in series [5] stood at 68.6%. The same molecule registered an MIC90 in series [1] of 0.04 µM (≈ 0.0161 µg/mL). Further, in [6], the CLint scaled was 9.6 mL/min/kg.
In series [1], `CC(=O)c1cn(-c2ccc(Br)cc2)c2ccc(O)c(CN3CCCC3)c12` registered an MIC90 of 0.3 µM (≈ 0.124 µg/mL).
Still for that read-out and setting: in the case of `CC(=O)c1cn(-c2cnccn2)c2ccc(O)c(CN3CCC3)c12` it was 199 µM (≈ 64.2 µg/mL).
Regarding `CNC(=O)c1c(-c2ccc(O)cc2)oc2ccc(O)c(CC3CCNCC3)c12`, in series [9], the MIC stood at 0.06 µM (≈ 0.0228 µg/mL).
On to `Oc1ccc2c(c(-c3nnco3)cn2-c2ccc(Br)cc2)c1CN1CCC1`, for which the half-life in series [3] worked out at 1.67 h. In addition, the microsomal CLint in series [4] was found to be 13.8 µL/min/mg. Further, in series [10], the result was Active. In addition, the remaining at 1 h in [5] stood at 61.7%. Further, in series [1], the MIC90 is 0.07 µM (≈ 0.0298 µg/mL). The CLint scaled in series [6] stood at 12.4 mL/min/kg.
With `CC(=O)c1cn(-c2ncccn2)c2ccc(O)c(CN3CCC3)c12`, the MIC90 in series [1] is 99 µM (≈ 31.9 µg/mL).
The same measure, in the same setting: in the case of `CNC(=O)c1cn(-c2ccc(Br)s2)c2ccc(O)c(CN3CCCCC3)c12` it was 9 µM (≈ 4.04 µg/mL); in that of `CC(=O)c1cn(-c2ccc(Br)cc2)c2ccc(O)c(CN3CCC(F)CC3)c12`, 0.28 µM (≈ 0.125 µg/mL); in that of `CC(=O)c1cn(-c2ccc(C)s2)c2ccc(O)c(CN3CCC3)c12`, 0.37 µM (≈ 0.126 µg/mL).
